Reference: ChEMBL document CHEMBL1201862, “PubChem BioAssay data set” (2004)
The source made the active and inactive calls.

Key:
[1] = Luminescence Cell-Based Dose Response HTS to Identify Activators of Luciferase Translation or Activity in H4 […] Cells. [Related pubchem assays: 1829 (Project Summary), 1814 (Primary HTS)]; assay type: functional
[2] = Luminescence Cell-Based Dose Confirmation HTS to Identify Activators of 5'UTR Stem-Loop Driven Alpha-Synuclein mRNA Translation in H4 Neuroglioblastoma Cells. [Related pubchem assays: 1829 (Project Summary), 1814 (Primary HTS)]; assay type: functional
H4 = assay: Luminescence Cell-Based Dose Response HTS to Identify Activators of 5'UTR Stem-Loop Driven Prion Protein mRNA Translation in H4 Neuroglioblastoma Cells. [Related pubchem assays: 1829 (Project Summary), 1814 (Primary HTS)]; assay type: functional; conditions: Homo sapiens
[3] = target: T1, Sentrin-specific protease 8 (Homo sapiens, UniProt Q96LD8); assay type: functional;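 further: luminescence read-out of SENP8 inhibition, dose-response confirmation following an ultra-high-throughput screen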
T1 sequence (Q96LD8 whole entry): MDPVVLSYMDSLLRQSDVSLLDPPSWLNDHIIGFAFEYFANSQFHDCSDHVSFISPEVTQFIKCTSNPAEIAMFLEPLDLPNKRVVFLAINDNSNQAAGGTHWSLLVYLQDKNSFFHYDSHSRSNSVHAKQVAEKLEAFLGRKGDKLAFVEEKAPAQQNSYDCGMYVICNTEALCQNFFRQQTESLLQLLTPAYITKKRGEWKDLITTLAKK

Caspase-3 = target: T2, Caspase-3 (Homo sapiens, UniProt P42574); assay type: functional;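 further: Dose-response selectivity test against caspase-3 for candidate inhibitors of sentrin-specific proteases (SENPs)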
T2 sequence (P42574 whole entry): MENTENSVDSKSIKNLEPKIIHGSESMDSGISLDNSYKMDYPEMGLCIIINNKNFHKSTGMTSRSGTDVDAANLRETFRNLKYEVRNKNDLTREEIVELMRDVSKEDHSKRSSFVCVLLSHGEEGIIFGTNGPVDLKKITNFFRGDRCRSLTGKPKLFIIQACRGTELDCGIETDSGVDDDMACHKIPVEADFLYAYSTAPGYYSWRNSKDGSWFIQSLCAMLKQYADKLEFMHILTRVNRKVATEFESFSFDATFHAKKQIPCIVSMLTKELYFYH

[4] = target: T3, Sentrin-specific protease 7 (Homo sapiens, UniProt Q9BQF6); assay type: functional;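 further: Luminescence-based dose-response confirmation of ultra-high-throughput screening hits, measuring inhibition of SENP7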
T3 sequence (Q9BQF6 whole entry): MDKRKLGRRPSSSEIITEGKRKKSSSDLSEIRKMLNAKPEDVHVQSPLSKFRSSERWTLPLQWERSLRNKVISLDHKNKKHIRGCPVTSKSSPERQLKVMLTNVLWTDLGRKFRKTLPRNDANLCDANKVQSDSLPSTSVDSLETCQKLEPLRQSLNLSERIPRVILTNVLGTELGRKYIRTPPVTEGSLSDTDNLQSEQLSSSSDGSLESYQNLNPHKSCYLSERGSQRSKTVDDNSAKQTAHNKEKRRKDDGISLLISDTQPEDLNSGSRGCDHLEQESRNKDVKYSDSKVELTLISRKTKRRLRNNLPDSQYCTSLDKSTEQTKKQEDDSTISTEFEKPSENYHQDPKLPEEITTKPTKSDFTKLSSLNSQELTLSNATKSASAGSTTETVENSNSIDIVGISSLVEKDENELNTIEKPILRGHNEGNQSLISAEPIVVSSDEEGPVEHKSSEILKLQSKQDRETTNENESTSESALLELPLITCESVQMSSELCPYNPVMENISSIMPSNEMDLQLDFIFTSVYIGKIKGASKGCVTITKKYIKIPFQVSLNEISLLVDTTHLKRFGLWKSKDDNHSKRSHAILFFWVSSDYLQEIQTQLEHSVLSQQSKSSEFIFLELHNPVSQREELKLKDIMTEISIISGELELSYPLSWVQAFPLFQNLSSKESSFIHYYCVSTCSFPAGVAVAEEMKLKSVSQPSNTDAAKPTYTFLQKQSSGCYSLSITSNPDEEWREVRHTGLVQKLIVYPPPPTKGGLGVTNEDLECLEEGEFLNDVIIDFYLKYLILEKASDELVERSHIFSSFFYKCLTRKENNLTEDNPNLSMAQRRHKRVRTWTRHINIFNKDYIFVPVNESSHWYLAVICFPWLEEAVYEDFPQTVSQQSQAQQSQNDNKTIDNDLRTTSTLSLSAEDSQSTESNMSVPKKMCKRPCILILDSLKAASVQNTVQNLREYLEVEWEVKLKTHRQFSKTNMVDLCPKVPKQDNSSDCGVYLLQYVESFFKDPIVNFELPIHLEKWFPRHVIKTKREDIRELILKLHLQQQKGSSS

[5] = target: T4, Sentrin-specific protease 6 (Homo sapiens, UniProt Q9GZR1); assay type: functional;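 further: Luminescence-based dose-response confirmatory assay of SENP6 inhibition, following up an ultra-high-throughput screen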
T4 sequence (Q9GZR1 whole entry): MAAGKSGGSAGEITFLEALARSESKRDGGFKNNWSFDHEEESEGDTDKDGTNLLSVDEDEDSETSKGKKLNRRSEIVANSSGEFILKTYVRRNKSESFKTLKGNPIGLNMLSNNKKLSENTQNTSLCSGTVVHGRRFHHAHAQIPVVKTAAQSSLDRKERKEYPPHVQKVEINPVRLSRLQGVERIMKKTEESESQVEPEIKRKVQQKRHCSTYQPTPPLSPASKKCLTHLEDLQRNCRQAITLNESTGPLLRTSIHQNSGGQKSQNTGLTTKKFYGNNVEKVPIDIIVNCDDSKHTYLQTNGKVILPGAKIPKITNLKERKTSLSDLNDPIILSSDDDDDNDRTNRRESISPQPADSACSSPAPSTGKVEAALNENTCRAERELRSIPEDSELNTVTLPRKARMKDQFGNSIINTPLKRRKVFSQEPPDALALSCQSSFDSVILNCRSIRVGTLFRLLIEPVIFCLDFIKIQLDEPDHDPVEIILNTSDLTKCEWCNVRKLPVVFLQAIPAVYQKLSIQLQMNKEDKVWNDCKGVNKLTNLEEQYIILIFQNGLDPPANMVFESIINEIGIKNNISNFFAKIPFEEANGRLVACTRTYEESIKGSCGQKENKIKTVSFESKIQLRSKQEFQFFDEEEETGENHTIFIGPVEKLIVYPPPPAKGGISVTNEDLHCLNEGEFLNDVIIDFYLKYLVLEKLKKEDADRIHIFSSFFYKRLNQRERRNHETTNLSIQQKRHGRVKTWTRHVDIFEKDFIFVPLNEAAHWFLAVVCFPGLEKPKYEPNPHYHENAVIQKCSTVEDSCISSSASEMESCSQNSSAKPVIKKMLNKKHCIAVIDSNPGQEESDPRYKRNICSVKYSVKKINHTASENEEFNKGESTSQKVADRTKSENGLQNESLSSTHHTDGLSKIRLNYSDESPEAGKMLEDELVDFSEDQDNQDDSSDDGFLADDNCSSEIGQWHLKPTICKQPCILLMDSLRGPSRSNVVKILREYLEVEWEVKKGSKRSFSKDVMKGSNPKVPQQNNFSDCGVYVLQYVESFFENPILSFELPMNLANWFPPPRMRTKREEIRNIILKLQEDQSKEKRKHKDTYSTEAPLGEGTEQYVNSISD

SN12K1 = assay: cells; assay type: functional; conditions: Homo sapiens
P388/ADR = assay: cells; assay type: functional; conditions: Mus musculus
[6] = target: T5, Histone-lysine N-methyltransferase NSD2 (Homo sapiens, UniProt O96028); assay type: biochemical
T5 sequence (O96028 whole entry): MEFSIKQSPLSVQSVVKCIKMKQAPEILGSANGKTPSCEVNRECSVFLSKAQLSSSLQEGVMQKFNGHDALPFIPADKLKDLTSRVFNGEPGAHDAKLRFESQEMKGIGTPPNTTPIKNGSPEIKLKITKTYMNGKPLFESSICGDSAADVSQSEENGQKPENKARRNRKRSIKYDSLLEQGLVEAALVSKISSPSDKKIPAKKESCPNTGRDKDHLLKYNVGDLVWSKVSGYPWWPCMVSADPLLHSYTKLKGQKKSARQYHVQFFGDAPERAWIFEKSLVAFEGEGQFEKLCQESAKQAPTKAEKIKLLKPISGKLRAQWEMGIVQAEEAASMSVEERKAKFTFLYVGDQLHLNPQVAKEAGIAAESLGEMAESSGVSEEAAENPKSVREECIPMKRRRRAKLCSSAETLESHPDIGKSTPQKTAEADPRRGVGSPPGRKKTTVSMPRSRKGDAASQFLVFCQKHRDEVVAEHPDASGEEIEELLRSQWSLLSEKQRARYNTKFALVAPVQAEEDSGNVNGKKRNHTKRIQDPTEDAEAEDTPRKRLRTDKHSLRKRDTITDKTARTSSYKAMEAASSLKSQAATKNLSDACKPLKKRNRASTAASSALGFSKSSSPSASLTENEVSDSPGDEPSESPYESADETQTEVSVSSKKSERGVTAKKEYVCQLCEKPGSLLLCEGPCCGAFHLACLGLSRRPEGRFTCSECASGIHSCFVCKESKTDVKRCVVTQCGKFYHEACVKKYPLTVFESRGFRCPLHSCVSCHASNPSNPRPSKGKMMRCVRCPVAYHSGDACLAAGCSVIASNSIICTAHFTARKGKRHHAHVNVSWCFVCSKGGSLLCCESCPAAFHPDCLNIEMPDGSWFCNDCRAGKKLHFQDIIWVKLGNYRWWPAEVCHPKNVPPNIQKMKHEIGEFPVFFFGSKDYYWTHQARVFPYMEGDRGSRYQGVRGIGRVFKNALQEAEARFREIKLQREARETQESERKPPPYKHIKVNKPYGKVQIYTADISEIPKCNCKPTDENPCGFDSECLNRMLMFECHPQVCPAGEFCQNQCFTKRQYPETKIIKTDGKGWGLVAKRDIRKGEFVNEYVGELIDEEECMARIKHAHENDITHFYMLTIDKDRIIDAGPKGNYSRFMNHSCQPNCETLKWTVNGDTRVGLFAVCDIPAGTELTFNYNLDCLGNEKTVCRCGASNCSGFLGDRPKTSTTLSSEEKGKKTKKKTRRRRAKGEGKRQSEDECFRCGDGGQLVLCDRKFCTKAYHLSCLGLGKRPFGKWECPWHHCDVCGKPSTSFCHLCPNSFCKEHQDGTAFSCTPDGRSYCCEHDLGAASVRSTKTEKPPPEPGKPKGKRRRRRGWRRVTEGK

P388 = assay: cells; assay type: functional; conditions: Mus musculus
Cytochrome P450 3A4 = Cytochrome P450 3A4 (Homo sapiens, UniProt P08684);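 further: CYP3A4 tested as one member of a cytochrome P450 panel screen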
Cytochrome P450 3A4, sequence (P08684 whole entry): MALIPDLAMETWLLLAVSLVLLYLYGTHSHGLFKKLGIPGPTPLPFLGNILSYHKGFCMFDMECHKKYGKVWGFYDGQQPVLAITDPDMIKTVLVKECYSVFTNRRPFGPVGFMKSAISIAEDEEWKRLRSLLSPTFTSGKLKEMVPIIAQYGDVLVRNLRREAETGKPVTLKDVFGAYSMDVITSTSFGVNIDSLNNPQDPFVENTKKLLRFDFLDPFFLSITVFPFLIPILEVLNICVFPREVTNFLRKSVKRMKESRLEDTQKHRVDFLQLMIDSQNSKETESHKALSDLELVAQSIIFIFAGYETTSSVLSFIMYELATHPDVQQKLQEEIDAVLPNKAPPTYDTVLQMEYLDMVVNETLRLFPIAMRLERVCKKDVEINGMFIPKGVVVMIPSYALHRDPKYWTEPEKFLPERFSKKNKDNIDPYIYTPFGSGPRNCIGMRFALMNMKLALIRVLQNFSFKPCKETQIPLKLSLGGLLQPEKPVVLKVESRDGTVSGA

CCCCN1C(=O)C(=O)N(CC(=O)N2N=C3/C(=C/c4ccco4)CCCC3C2c2ccco2)C1=O (configuration not stated)
EC50 [1]: 14.8 µM (active)
EC50 [2]: > 120 µM (not active)
EC50 (H4): 19.6 µM (active)

O=C(c1ccccc1)c1ccc(Cn2cc(-c3ccccc3)nn2)cc1
IC50 [3]: 23.9 µM (active)
IC50 (Caspase-3): 32.3 µM (active)
IC50 [4]: 5.67 µM (active)
IC50 [5]: 19.5 µM (active)

COc1ccc2cc(C(=O)NCCc3ccccc3)[nH]c2c1
EC50 [1]: 48 µM (active)
EC50 [2]: 43.2 µM (active)
EC50 (H4): 99.5 µM (active)

O=C(Nc1ccccc1[N+](=O)[O-])C1COc2ccccc2O1 (configuration not stated)
EC50 [1]: > 120 µM (not active)
EC50 [2]: 0.244 µM (active)
EC50 (H4): 6.61 µM (active)

Cc1ccccc1NS(=O)(=O)c1cccc(C(=O)Nc2cccc(C(=O)O)c2)c1
IC50 [3]: 23.7 µM (active)
IC50 (Caspase-3): 66.7 µM (active)
IC50 [4]: 9.34 µM (active)
IC50 [5]: 23.3 µM (active)

COC1=C(C)C(=O)C2=C(C1=O)C1C3CC4=C(C(=O)C(OC)=C(C)C4=O)C(CNC(=O)C(C)=O)N3C(C#N)C(C2)N1C (configuration not stated)
GI50 (SN12K1): < 0.01 µM (active)
GI50 (P388/ADR): 0.0448 µM (active)
AC50 [6]: 8.92 µM (active)
GI50 (P388): 0.01 µM (active)

CN(C)/N=N/c1ccc([N+](=O)[O-])cc1C(N)=O
GI50 (SN12K1): > 100 µM (inactive)
GI50 (P388/ADR): > 100 µM (inactive)
GI50 (P388): > 100 µM (inactive)

COc1cc(Cc2nccc3cc(OC)c(OC)cc23)c(C(C)=O)cc1OC
GI50 (SN12K1): 20.4 µM (inactive)
GI50 (P388/ADR): 14.5 µM (inactive)
GI50 (P388): 1.66 µM (inactive)

NC1=NCN(C2OC(CO)C(O)C2O)C(=O)N1 (configuration not stated)
GI50 (SN12K1): 13.9 µM (inactive)
GI50 (P388/ADR): 10.4 µM (inactive)
GI50 (P388): 8.57 µM (inactive)

CCCn1cc2c3c(cccc31)C1C=C(C)CN(C)C1C2 (configuration not stated)
GI50 (SN12K1): 14.2 µM (inactive)
GI50 (P388/ADR): 3.34 µM (inactive)
GI50 (P388): 5.69 µM (inactive)

COc1ccccc1C(=O)N/N=C(\C)c1ccc(NC(=O)Cc2ccccc2)cc1
EC50 [1]: > 120 µM (not active)
EC50 [2]: > 120 µM (not active)
EC50 (H4): > 120 µM (not active)

C=C1C(=O)O[C@@H]2[C@H]3O[C@]3(C)CCC=C(C)CC[C@@H]12
GI50 (SN12K1): 16.4 µM (inactive)
GI50 (P388/ADR): 4.84 µM (inactive)
AC50 (Cytochrome P450 3A4): 10 µM (inconclusive)
GI50 (P388): 6.59 µM (inactive)

CCC1(O)C(=O)OCc2c1cc1n(c2=O)Cc2cc3cc4c(cc3nc2-1)OCO4 (configuration not stated)
GI50 (SN12K1): < 0.01 µM (active)
GI50 (P388/ADR): < 0.01 µM (active)
GI50 (P388): < 0.01 µM (active)

C=C(C)C(O)CC/C(C)=C/Cc1c(O)ccc(C(=O)/C=C/c2ccc(O)cc2)c1O (configuration not stated) [XANTHOANGELOL B]
IC50 [3]: 5.08 µM (active)
IC50 (Caspase-3): 28.1 µM (active)
IC50 [4]: 3.39 µM (active)
IC50 [5]: 4.22 µM (active)
